Measured values published in patent US20210343422A1, “METHODS FOR DYNAMIC MODELING AND CLOSED-LOOP CONTROL OF INFLAMMATION” (Georgia Tech Research Corporation, priority 2018, published 2021).
Entries after “also recorded” stand apart in the source; their conditions may differ.

Assays:
[1] = tested on: RAW 264.7 murine immortalized macrophages; assay: iNOS expression by immunocytochemistry (ICC), normalized to nuclei count; type: cell-based; details: for sensitivity of iNOS response, IFN-γ versus TNF-α as second pro-inflammatory stimulus: FIG. 9
Procedure: (§1) All studies in this work were performed using RAW 264.7 murine immortalized macrophages (ATCC TIB-71™). Macrophages were expanded, maintained, and cultured in basal macrophage medium, which is comprised of DMEM (Thermo Fisher Scientific; Ser. No. 12/430,062), 10% FBS (Thermo Fisher Scientific; 26140079), and 1% antibiotic/antimycotic (Sigma-Aldrich; A5955).
(§2) Raw 264.7 macrophages were cultured to 70% confluence before conditioning began. Cells were conditioned by addition of medium with lipopolysaccharide (LPS; Sigma-Aldrich; L2880), interferon gamma (IFN-γ; R&D Systems; 485-MI), or interleukin (IL)-4 (PeproTech; 214-14) as indicated.
(§3) Raw 264.7 macrophages were conditioned with LPS or IFN-γ alone to quantify individual stimulus dynamic response, with LPS or IFN-γ sequentially to recover iNOS expression via orthogonal input, or with LPS […] to quantify supra-additivity and model predictive control strategy response. Pre-treatment, 24 hours of IL-4 prior to addition of LPS or IFN-γ, was used to induce an anti-inflammatory, non-nave state for experiments involving hysteretic effects.
For immunocytochemistry (ICC) experiments, macrophages were cultured in 96-well microplates. Macrophages were fixed in 4% PFA solution for 15 minutes and blocked with 5% BSA+3% goat serum in PBS for one hour. Cells were stained with α-iNOS antibody (Cell Signaling Technology; Cat. No. 13120; 1:400) and DAPI for normalization to nuclei count. Cells were imaged at 10× magnification (Zeiss Observer Z1). Image fluorescence was thresholded and total fluorescence above the threshold was normalized to nuclei number.
(§4) ICC and Western blot data were aggregated and iNOS expression for each independent experiment was normalized to the positive control with Raw264.7 cells treated with 1 μg/mL LPS for 24 hours (dynoDataLoad.m). iNOS dynamics plots were generated using the Gramm package for MATlAB. Data at sampled time points (0, 24 48, and 72 hours) were expressed as mean±SEM for separated data (N=38 for LPS single input experiments; N=8 for LPS repeated input experiments; N=8 for LPS cycled input experiments; N=32 for IFN-γ single input experiments; N=16 for IFN-γ repeated input experiments; N=16 for IFN-γ cycled input experiments). To generate interpolation curves data were smoothed using the Savitzky-Golay (sgolay) option in the curve fitting toolbox. Shaded band on curve represents root mean squared (RMS) cross validation error on smoothed data (macrophageDyn_figGenv3.m).

[2] = tested on: RAW 264.7 murine immortalized macrophages; assay: iNOS expression by quantitative Western blot, normalized to α-tubulin; type: cell-based
Procedure: as §1, §2
For Western blot experiments, cells were cultured in 6-well plates then lysed using RIPA buffer with PMSF (Sigma-Aldrich), and cOmplete Mini (Sigma-Aldrich). Membranes were probed for α-tubulin (Sigma-Aldrich, Cat. No. T6074; 1:4000) and iNOS (1:1000). Membranes were imaged on a LiCor Odyssey CLx machine and quantified in ImageStudio Lite. iNOS band intensity was normalized to α-tubulin intensity to yield iNOS expression.
as §4

[3] = tested on: Raw264.7 cells; assay: Arg1 expression for M2 polarization validation; type: cell-based, murine; details: IL-4 pre-conditioning, FIG. 11
Procedure: as §3
To model Raw264.7 cells starting in a non-nave state, the inventors pre-conditioned macrophages with IL-4 for 24 hours prior to pro-inflammatory stimulation. […] Reference source not found. For each LPS concentration, iNOS expression for non-M2 polarized LPS-only treated cells were divided by iNOS expression values from cell treated with an array of IL-4 concentrations for 24 hours followed by 24 hours of LPS. The matrix of LPS and IL-4 concentrations was interpolated using 3rd order linear least squares, which provided the inverse of the continuous input concentration-dependent attenuation factor γ. […] The M2 driven attenuation of M1 response reflects the systemic immunosuppression that poses a major risk to post-traumatic or surgical injury patients.

[4] = physiologically relevant concentration range

Molecule: lipopolysaccharide [LPS]
- duration of iNOS level ([1]; LQG controller input: 24 hours of 20 ng/ml, then 48 hours at 1 μg/ml LPS): sustained this iNOS level through 48 hours, but not through 72 hours
- iNOS expression level, of the reference ([1]; LQG controller input: 24 hours of 20 ng/ml, then 48 hours at 1 μg/ml LPS, read at 24 hours): 60%
- iNOS expression, peak, of normalized max iNOS ([1]; PI controller input: 40 ng/ml LPS for 24 hours, then 1 μg/ml until 72 hours, read at 24 hours, max = 24 hour level given 1 μg/ml LPS): approximately 70%
- iNOS expression, of max ([1]; PI controller input: 40 ng/ml LPS for 24 hours, then 1 μg/ml, read at 48 hours): 50 % max
- iNOS response above the high LPS concentration ([1]; above 1 μg/ml LPS): response tapered off
- iNOS expression at 72 hours ([1]; combined PI and LQG three-step LPS input strategy): did not keep activation high at 72 hours
- iNOS expression dynamics on repeated or cycled LPS stimulation ([1]; multiple administrations of LPS, or 24 hours in control media before LPS re-stimulation): did not alter iNOS expression dynamics; also recorded: not modulated
- LPS dose-to-iNOS response relationship ([1]; physiologically relevant concentration range, up to 1 μg/ml LPS): monotonic
- time of peak in iNOS expression ([2]; single administration of 1 μg/ml LPS): 24 h
- decay of iNOS expression to baseline after the peak ([2]; single administration of 1 μg/ml LPS, LPS not removed): 48 h

Molecule: TNF-α
- sensitivity of iNOS response, IFN-γ versus TNF-α as second pro-inflammatory stimulus [1, 4]: more sensitive to IFN-γ

B1: interferon gamma (protein, UniProt P01580 23-155, looked up)
Interferon gamma: HGTVIESLESLNNYFNSSGIDVEEKSLFLDIWRNWQKDGDMKILQSQIISFYLRLFEVLKDNQAISNNISVIESHLITTFFSNSKAKKDAFMSIAKFEVNNPQVQRQAFNELIRVVHQLLPESSLRKRKRSRC
notes: interferon gamma (R&D Systems; 485-MI), second orthogonal pro-inflammatory input
- temporal iNOS response to IFN-γ alone ([1]; 100 ng/ml IFN-γ alone, FIG. 10): not sustained
- iNOS levels after prior LPS input ([1]; 24 hrs of LPS, then IFN-γ delayed or immediately after, FIGS. 4B-4C): robustly increased iNOS levels
- effect on LPS-induced iNOS expression (supra-additivity) ([1]; IFN-γ with LPS, concomitantly or in series, through 72 hours): amplifies LPS-induced iNOS expression
- iNOS expression in IL-4 pre-treated cells, IFN-γ with LPS versus LPS alone ([1]; lower LPS and higher IL-4 concentrations, FIG. 5B-5C): greater iNOS expression was observed
- sensitivity of iNOS response, IFN-γ versus TNF-α as second pro-inflammatory stimulus [1, 4]: more sensitive to IFN-γ

B2: interleukin (IL)-4 (protein, UniProt P07750 21-140, looked up)
Interleukin-4: HIHGCDKNHLREIIGILNEVTGEGTPCTEMDVPNVLTATKNTTESELVCRASKVLRIFYLKHGKTPCLKKNSSVLMELQRLFRAFRCLDSSISCTMNESKSTSLKDFLESLKSIMQMDYS
notes: interleukin-4 (PeproTech; 214-14), used to induce an anti-inflammatory, non-naive state
- iNOS expression after IL-4 pre-conditioning ([1]; IL-4 for 24 hours, then 24 hr of LPS): attenuated expression of iNOS
- iNOS protein expression ([2]; IL-4 treatment, FIG. 8, n=2): not expressed
- Arg1 expression [3]: increased expression of Arg1
